Data reported in patent EP4643861A1, “A HALOGENATED-HETEROARYL KINASE INHBITOR FOR TREATING SOFT TISSUE SARCOMA AND VASCULAR TUMORS” (iOmx Therapeutics AG, priority 2024, dated 2025).

How the values were obtained:
[1] = tested on: Human Patient-Derived Xenograft (PDX) Angiosarcoma; assay: E9 monotherapy efficacy in Human Patient-Derived Xenograft (PDX) Angiosarcoma model; type: in vivo, immuno-deficient NOD scid gamma (NOG) mice; details: BID × 23, termination at day 23
Source text: This Angiosarcoma PDX model was used for preclinical evaluation of E9 in Angiosarcoma due to the retention of tumor heterogeneity and biological characteristics. Additionally, due to the rare indication, no murine syngeneic or human xenograft models are available.
Briefly, immuno-deficient NOD scid gamma (NOG) mice, were housed in a controlled environment conducive to tumor growth. Human PDX tumor samples, obtained from a patient with Angiosarcoma (Epitheloid AS […]), were implanted subcutaneously into the mice. Tumor growth was monitored using non-invasive caliper method and was calculated by the following formula: volume = (width)2 × (length)/2. Animals were randomized into treatment groups at a tumor volume (TV) of ~160mm3 (Table 1). Treatment started after randomization twice daily until termination at day 23 when Vehicle animals reached termination criteria due to TV. Table 1: Example treatment groups.

[2] = tested on: secondary radiation-induced cutaneous angiosarcoma; assay: Treatment of a secondary angiosarcoma in a patient (dose escalation study); type: in vivo, human
Experimental: Clinical responder patient suffered from a secondary radiation-induced cutaneous angiosarcoma. The patient, who previously received radiotherapy in context of a treatment of breast cancer, developed secondary angiosarcoma. The angiosarcoma was treated with chemotherapy including paclitaxel, doxorubicin and cyclophosphamide the patient developed treatment resistance to the chemotherapy. In the following the patient received E9 in context of a dose excalation study in which E9 was administered orally every 12h (i.e. twice daily) for 28 days per treatment cycle. E9 daily doses were escalated from 10mg to 30mg and finally 60mg E9 during the then following continuous treatment.

Cc1nc(Nc2ncc(C(=O)Nc3c(CF)csc3Cl)s2)cc(N2CCN(C)CC2)n1 [E9, N-(2-chloro-4-(fluoromethyl)thiophen-3-yl)-2-((2-methyl-6-(4-methylpiperazin-1-yl)pyrimidin-4-yl)amino)thiazole-5-carboxamide]
tumor growth inhibition (TGI) ([1]; 25mg/kg E9, p.o.): 55% | tumor size at termination compared to treatment start ([1]; 50 mg/kg E9, p.o.): tumor regression | duration of maintained near-complete response ([2]; further treatment with 60mg daily E9): over 10 months | tolerability ([2]; orally every 12h, 28 days per cycle, daily doses escalated from 10mg to 30mg and finally 60mg): well tolerated | clinical response (reduction of cutaneous lesions) ([2]; patient resistant to paclitaxel, doxorubicin and cyclophosphamide, E9 orally twice daily): near-complete response
